Results reported in patent US9173879B2, “Crystalline forms of (S)-7-([1,2,4]triazolo[1,5-a ]pyridin-6-yl)-4-(3,4-dichlorophenyl)-1,2,3,4-tetrahydroisoquinoline and use thereof” (Bristol-Myers Squibb Company, priority 2009, dated 2015).
Where a name gives a salt, the structure may show the parent alone.

How the values were obtained:
NET = assay: Occupancy assay, ex vivo binding in brain tissue, NET; details: dose 1 mg/kg, time point 3 hour
Source text: (§1) The general procedure for brain tissue collection and transporter occupancy assessment is briefly described as follows. Mice were sacrificed by asphyxiation in CO2, rats by decapitation and dogs by IV injection of euthanasia solution. For mice and rats, after the brains were removed from the skull, the forebrain tissue (removal of the brainstem and cerebellum) was used for SERT, NET, and DAT occupancy assessment. In dogs, the striatum was dissected for DAT occupancy and the remaining forebrain tissue (without the striatum, brainstem, and cerebellum) was used for SERT and NET occupancy assessment. The brain tissues were frozen in chilled isopentane and stored at −80° C. until homogenization.
(§2) The brain tissues were thawed and then homogenized using a polytron homogenizer (Kinematica). Sample aliquots were frozen immediately and stored at −80° C. Protein content was measured for each sample using a Coomassie protein assay kit (Pierce).
(§3) On the day of ex vivo binding for occupancy assessment, frozen sample aliquots were thawed and needle homogenized, and 100 μg of the tissue was incubated for SERT, NET, and DAT binding under assay conditions summarized in Table 1. […] Radioligand was measured using a Wallac Microbeta liquid scintillation counter.
(§4) The specific binding was calculated by subtracting the value of the non-specific binding from that of the total binding in each sample. […]

hNET = hNET (Homo sapiens (Human), UniProt P23975); assay: NET radioligand binding assay ([3H]nisoxetine, HEK-293 membranes)
Chain of hNET (P23975 whole entry): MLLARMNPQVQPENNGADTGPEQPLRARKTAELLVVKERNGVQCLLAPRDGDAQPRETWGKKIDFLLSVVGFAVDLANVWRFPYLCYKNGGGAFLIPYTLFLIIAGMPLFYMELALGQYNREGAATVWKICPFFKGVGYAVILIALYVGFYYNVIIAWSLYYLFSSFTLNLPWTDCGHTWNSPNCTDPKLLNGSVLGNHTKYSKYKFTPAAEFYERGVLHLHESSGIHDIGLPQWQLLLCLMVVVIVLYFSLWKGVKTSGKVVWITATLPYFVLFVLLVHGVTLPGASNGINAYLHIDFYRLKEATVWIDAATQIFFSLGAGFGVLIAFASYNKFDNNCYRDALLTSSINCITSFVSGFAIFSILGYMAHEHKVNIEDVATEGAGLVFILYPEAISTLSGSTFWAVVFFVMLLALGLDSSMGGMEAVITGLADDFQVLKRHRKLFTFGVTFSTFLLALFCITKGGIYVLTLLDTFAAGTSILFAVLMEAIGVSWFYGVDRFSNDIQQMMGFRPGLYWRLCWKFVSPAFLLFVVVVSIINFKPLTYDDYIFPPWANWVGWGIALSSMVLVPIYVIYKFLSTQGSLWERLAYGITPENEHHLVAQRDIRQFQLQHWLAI
Experimental: (§5) Recombinant HEK-293 cells expressing either the hSERT, hDAT, or hNET proteins were harvested from T-175 flasks as follows. The medium was removed from the flasks and the cells rinsed with HBSS without Ca and without Mg. The cells were then incubated for 5-10 minutes in 10 mM Tris-Cl, pH 7.5, 5 mM EDTA before the cells were lifted with a combination of pipetting and scraping, as needed. The cell suspension was collected into centrifuge bottles and homogenized for 30 seconds with a Polytron homogenizer. The suspension was centrifuged for 30 minutes at 32,000×g, 4° C. The supernatant was decanted and the pellet resuspended and homogenized in 50 mM Tris-Cl, pH 7.5, 1 mM EDTA for 10 seconds. […]
(§6) Compounds were dissolved in 100% DMSO at a concentration 100 times the desired highest assay concentration, serially diluted 1:3 in 100% DMSO, and 1.0 μl/well of each solution was dispensed to a Nunc polypropylene, round bottom, 384-well plate. […] The plates were air-dried overnight, 12 μl/well of MicroScint scintillation fluid added, and the plates counted in a Trilux.
(§7) The raw data was normalized to percent inhibition using control wells defining 0% (DMSO only) and 100% (selective inhibitor) inhibition which were run on each plate. […] The radioligand concentration chosen for each assay corresponds to the Kd concentration determined through saturation binding analysis for each assay.

SERT = assay: Occupancy assay, ex vivo binding in brain tissue, SERT; details: dose 1 mg/kg, time point 3 hour
Source text: as §1, §2, §3, §4

DAT = assay: Occupancy assay, ex vivo binding in brain tissue, DAT; details: dose 1 mg/kg, time point 3 hour
Source text: as §1, §2, §3, §4

hDAT = hDAT (Homo sapiens (Human), UniProt Q01959); assay: DAT radioligand binding assay ([125I]RTI-55, HEK-293 membranes)
Chain of hDAT (Q01959 whole entry): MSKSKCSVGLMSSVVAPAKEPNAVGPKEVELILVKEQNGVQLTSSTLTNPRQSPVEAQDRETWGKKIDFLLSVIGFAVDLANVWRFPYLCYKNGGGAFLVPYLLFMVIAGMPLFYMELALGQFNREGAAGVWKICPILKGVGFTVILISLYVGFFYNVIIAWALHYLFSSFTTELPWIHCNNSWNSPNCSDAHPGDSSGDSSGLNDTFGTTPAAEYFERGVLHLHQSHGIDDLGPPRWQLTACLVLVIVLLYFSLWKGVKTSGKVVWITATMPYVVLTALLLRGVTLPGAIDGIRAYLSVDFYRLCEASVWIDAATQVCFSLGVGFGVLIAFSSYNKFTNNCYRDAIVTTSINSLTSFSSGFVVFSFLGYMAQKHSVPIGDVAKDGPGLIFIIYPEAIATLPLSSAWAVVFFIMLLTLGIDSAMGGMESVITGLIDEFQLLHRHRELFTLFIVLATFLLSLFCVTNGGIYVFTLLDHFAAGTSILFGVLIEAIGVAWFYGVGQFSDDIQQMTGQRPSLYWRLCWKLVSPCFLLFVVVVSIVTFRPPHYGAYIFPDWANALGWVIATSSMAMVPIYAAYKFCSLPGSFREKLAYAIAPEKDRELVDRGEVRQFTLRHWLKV
Experimental: as §5
as §6, with “0.4” for “1.0”
as §7

hSERT = hSERT (Homo sapiens (Human), UniProt P31645); assay: SERT radioligand binding assay ([125I]RTI-55, HEK-293 membranes)
Experimental: as §5, with “seconds. The suspension was then centrifuged again for 30 minutes at 32,000×g, 4° C. The supernatant was decanted and the pellet resuspended in 50 mM Tris-Cl, pH 7.5, 1 mM EDTA and briefly homogenized. A Bradford assay (Bio-rad) was performed and the membrane preparation diluted to 2 mg/ml with 50 mM Tris-Cl, pH 7.5, 1 mM EDTA.” for “seconds.”
as §6, with “0.4” for “1.0”, “Trilux. […]” for “Trilux.”

[1] = Mouse tail suspension assay; type: in vivo; details: male Swiss Webster mice, acute administration
Experimental: Male Swiss Webster mice were housed 3-4 per cage in rooms maintained at a constant temperature (21-23° C.) and humidity (50±10%) on a 12-hour light/dark cycle. Animals had ad libitum access to water and food throughout studies. On the day of testing, they were brought into the testing room and allowed to acclimate for 1 hour. To begin testing, the tail was attached to a piece of tape which was then attached to a hook on the ceiling of a sound-attenuated chamber. Immobility was automatically recorded using the Med Associates software. Compounds were administered acutely at a fixed pretreatment interval before session.

Compound	NET Occupancy % (NET) [%]	IC50 (hNET) [nM]	SERT Occupancy % (SERT) [%]	DAT Occupancy % (DAT) [%]	IC50 (hDAT) [nM]	IC50 (hSERT) [nM]	minimum effective dose in the mouse tail suspension study [1] [mg/kg]
Clc1ccc(C2CNCc3cc(-c4ccc5ncnn5c4)ccc32)cc1Cl (single isomer, unassigned; enantiomer 7) [Example 1 (−)-enantiomer, 7-([1,2,4]triazolo[1,5-a]pyridin-6-yl)-4-(3,4-dichlorophenyl)-1,2,3,4-tetrahydroisoquinoline]	33	4.8	41	30	105	4.2	
Clc1ccc(C2CNCc3cc(-c4ccc5ncnn5c4)ccc32)cc1Cl (single isomer, unassigned; (+)) [Example 1 (+)-enantiomer, (+)-7-([1,2,4]triazolo[1,5-a]pyridin-6-yl)-4-(3,4-dichlorophenyl)-1,2,3,4-tetrahydroisoquinoline, L-tartrate salt]	11		75	26			10
